In US12446495B2, “Injection systems, injection tools and methods for same” (Invaio Sciences International GmbH, priority 2018, dated 2025):

Test: Distribution of test substance within plants after trunk injection
Format: in vivo
Conditions: solution comprising 2% Brilliant Blue E 133 injected; trees felled and cut in pieces; over 24 hours
Source text: The trunk injection devices have been tested regarding the use with different types of trunks, the speed of absorption, distribution of product within the plant, and the continuing usage of an injection device within a trunk. The injection devices have been tested with trunks with a diameter between 2 cm and 30 cm. The tests have been conducted with box, vine, hazelnut, walnut, maple, beach and oak. Further, trees such as date palm, citrus tree, and banana tree would be suitable as well.′ Speed of absorption is influenced by factors such as weather, season, time of day and injection pressure. Within tests conducted under ideal conditions, an injection pressure of 2.5 bars, and 10 ml of test substance, absorption times below 2 minutes have been achieved.
Distribution within plants has been tested injecting a solution comprising 2% Brilliant Blue E 133 (CAS reg. No. 3844-45-9.) as a test substance. Trees have afterwards been felled and cut in pieces to analyze the distribution of the test substance over time within the plant. The test substance did typically distribute over 5 meters within the stem over 24 hours.

With `CCN(Cc1cccc(S(=O)(=O)[O-])c1)c1ccc(C(=C2C=CC(=[N+](CC)Cc3cccc(S(=O)(=O)[O-])c3)C=C2)c2ccccc2S(=O)(=O)[O-])cc1.[Na+].[Na+]` [Brilliant Blue E 133] the “distribution of the test substance within the stem” value was ~5 meters.
